Results reported in patent US8211883B2, “Topical delivery of phthalocyanines” (priority 2004, dated 2012).
Marks after values point to notes of the source that are not given here.

Legend:
[1] = system: Chinese hamster V79-379 lung fibroblasts; experiment: Clonogenic cell survival of V79 cells after photodynamic treatment; type: cell-based; conditions: for LD 90 (light dosage that kills 90% of cells): 0.5 μM, 18 hours, 675 nm red light, VII# preplated data only, XXI* not totally soluble at 0.5 mM
Procedure: Cells were irradiated at a density of approximately 2×10^6 per 25 cm^2 flask. Immediately after irradiation, the cell monolayer was treated with trypsin, and appropriate aliquots were plated in triplicate to give 100 to 200 colonies in each 10-cm Petri dish. Cell survival was determined by the ability of the cells to form colonies containing at least 50 cells. The response of cells treated with 1 μM AlPcCl and light was compared in each experiment.
Photocytotoxicity of the phthalocyanines compounds I to VI was also assessed by clonogenic assay (Table 1, FIG. 1). In all experiments, 1 μM AlPcCl was included for comparison purposes. From the survival curves (FIG. 1), the fluence reducing the cell survival to 10% (F10) was obtained. The ratio of the F10 for AlPcCl and the F10 for the test compound is recorded in Table 1. Compounds I and II appear to be nearly as efficient photosensitizers as AlPcCl, while compound IV (assayed at half the concentration) was almost twice as efficient as the standard AlPcCl. […] However, in spite of the low efficiency of compound V in inhibiting cell growth, survival measurements were made for this compound, because it was taken up into V79 cells somewhat more efficiently than compounds III and VI.
In order to take differences in cellular uptake into consideration in the assessment of the relative efficiency of these phthalocyanines as photosensitizers of V79 cells, the survival data were replotted against the product of intracellular phthalocyanine concentration and light fluence (FIG. 2). From these curves, the product of intracellular concentration and light fluence reducing survival to 10% (CF10) was obtained, and comparisons of the values for AlPcCl and the test compounds are recorded in Table 1. By this and the other criteria, compound IV appears to be the most efficient photosensitizer. However, when consideration is given to the lesser cell uptake of compound V, it appears to be about as strong a photosensitizer as compound IV.
Using the cell culture methods described above, V79 cells Chinese hamster lung fibroblasts were treated with either 0.5 or 1.0 μM of the phthalocyanines listed in Table 3. About 18 hours thereafter, the cells were irradiated with increasing doses of 675 nm broad band red light from a 500 W tungsten-halogen lamp fitted with a 600 nm high pass filter, to determine the light dosage that would kill 90% of the phthalocyanine treated cells. Where 90% of the cells were not killed, the maximum percent of cells killed were determined, (expressed as % survival) and the related light dosage recorded.

[2] = system: Chinese hamster V79-379 lung fibroblasts; experiment: Uptake of phthalocyanines into V79 cells; conditions: for n Moles/10^6 Cells/μM (composite uptake value): V79 cells, average of all data, asterisk: listed value is for 1 μM, average would be higher
Procedure: Chinese hamster V79-379 lung fibroblasts were grown in monolayer culture in McCoy's 5A medium (Gibco Laboratories, Grand Island, N.Y.) augmented with 10% calf serum and buffered with 20 mM HEPES (pH 7.4).
Total uptake was determined by scraping the phthalocyanine-treated monolayer, collecting the cells on a glass-fiber filter, and extracting the phthalocyanine in ethanol, as previously described by Ramakrishnan, et al., 1989. (Ramakrishnan, N., M. E. Clay, M. F. Horng, A. R. Antunez, & H. H. Evans, “DNA Lesions and DNA Degradation in Mouse Lymphoma L5178Y Cells After Photodynamic Treatment Sensitized by Chloroaluminum Phthalocyanine”, Photochem. Photobiol, in press, 1989). The amount of drug was determined by absorption at 674 nm and expressed relative to the number of cells, as measured in a Coulter cell counter on an aliquot of the cell population. Controls included cells not treated with drug, medium alone, and drug-containing medium without cells.
The cells were treated with 1 μM AlPcCl (from Eastman Kodak, Rochester, N.Y.) or with phthalocyanine compositions I-VI (0.5-1.0 μM final concentration in the medium) for 18 hours by adding the appropriate volume of a 1.0 mM stock solution in dimethylformamide (DMF) to the culture medium. The growth medium was replaced with 4 mL Hank's balanced salt solution (HBSS), and the cells were irradiated. The light source was a 500 W tungsten-halogen lamp located approximately 29 inches below the surface of a glass exposure tray. The visible light administered to the cells was filtered to allow passage of only that portion of the visible spectrum above 600 nm (Lee Primary red filter No. 106, Vincent Lighting, Cleveland, Ohio). The fluence rate was approximately 0.074 kJ/m^2/s at the level of the cell monolayer.
V79 cells Chinese hamster lung fibroblasts were cultured using the cell culture methods described above. The phthalocyanines listed in table 2 were added to the cultures typically at concentrations of 1 μM, 2 μM, and/or 4 μM and incubated for 18 hours, after which aliquots of the cells were counted and other aliquots were collected on a glass fiber filter. When the filters were dry, the phthalocyanines were extracted into ethanol and the absorption determined at the peak wavelength, usually 668 nm. Values were converted to nmoles taken up by 10^6 cells, using an extinction coefficient of 2.93×10^5.

L5178Y cells = experiment: Induction of apoptosis (DNA ladder) in L5178Y cells after PDT; type: cell-based, Mouse; conditions: for C × F Ld90, Minimum Demonstrated Condition to Induce Apoptosis: product of concentration and fluence
Procedure: The aliquots were plated in sufficient numbers to produce 50-200 colonies. The dishes were kept in an incubator at 37° C. in an atmosphere of 5% CO2 and 95% air for 10-14 days to allow viable cells to form colonies. Colonies were counted by eye. […] The plating efficiencies of the treated cells are normalized to the plating efficiencies of control cells in each experiment.
Cells were treated with various concentrations of the compounds listed in the table and various light fluences. DNA gels were prepared and examined for the characteristic “ladder” pattern of DNA fragments. For each Pc, the minimum total PDT dose tested (calculated as the product of the minimum phthalocyanine concentration and the minimum fluence) which produced visible DNA fragments is recorded. […] PcXVIII was also added at 0.5 and 1.0 μM.

[3] = system: RIF-1 (radiation-induced fibrosarcoma) tumors; experiment: PDT of RIF-1 implanted tumors; type: in vivo, C3H/HeN mice; set-up: key to Tumor Responses at 24 hours: complete: no evidence of any tumor mass in any animal; only the scar from the photodynamic therapy was evident.; near complete: evidence of any tumor mass in four or five animals; only some tumor mass in one or two animals.; substantial: a significant tumor shrinkage occurred in all animals. In some animals the tumor response was complete, yet in others the response was not complete.; moderate: some tumor shrinkage was evident in some animals. In animals with some tumor shrinkage, scar formation was evident.; slight: some tumor decrease occurred in one or two mice; conditions: 675 nm; for Doubling Time of Initial Tumor Volume after PDT: controls 4 days
Procedure: The relative effectiveness at reducing tumor volume of selected phthalocyanine compounds at a given dosage was compared in vivo. RIF-1, i.e., radiation-induced fibrosarcoma, tumors were implanted into the backs of C3H/HeN mice. One tumor was implanted per mouse. Each of the phthalocyanine compounds listed in Table 7 was sonicated and vortexed in corn oil to produce a suspension. When the tumors reached […] in diameter and 2-3 mm in thickness, each mouse received 1 mg/kg in 0.1 mL of the corn oil, of the phthalocyanine suspension. For comparison, select mice received a conventional photosensitizer; either 5 mg/kg of chloroaluminum phthalocyanine tetrasulfonate, herein also referred to as “AlPcTS” in phosphate buffered saline or 5 mg/kg of Photofrin®-II in 5% dextrose. Twenty-four hours after the photosensitizers were administered, the tumors were irradiated with visible radiation delivered by an argon-pumped dye laser. The mice that received a phthalocyanine photosensitizer received light having a wavelength of 675 nm and the mice that received the Photofrin® II photosensitizer received light having a wavelength of 630 nm. Each tumor received 135 J/cm^2 of radiation. Tumor size was measured every day using calipers. The initial tumor volume was 50±10 mm^3. Tumor volume was calculated according to the hemiellipsoid model by the formula: V=½(4π)/3×(½×(w/2))×h
• complete—no evidence of any tumor mass in any animal; only the scar from the photodynamic therapy was evident. • near complete—evidence of […] in four or five animals; only some tumor mass in one or two animals. • substantial—a significant tumor shrinkage occurred in all animals. In some animals the tumor response was complete, yet in others the response was not complete. • moderate—some tumor shrinkage was evident in some animals. In animals with some tumor shrinkage, scar formation was evident. • slight—some tumor decrease occurred in one or two mice.

[4] = system: Mouse lymphoma L5178y-R cells; experiment: Clonogenic cell survival of PDT-treated LY-R cells; type: cell-based; conditions: 0.5 μM
Procedure: Mouse lymphoma L5178y-R (hereinafter also referred to as “LY-R”) cells were grown in suspension culture as described in Ramakrishnan N., Oleinick, N. L. Clay, M. E., Homg, M. F., Antunez, A. R., and Evans H. H., Photochem. Photobiol. 50, 373-378, 1989 and Agarwal, M. L., Clay, M. E., Harvey, E. J., Evans, H. H., Antunez, A. R., and Oleinick, N. L., Cancer Res., 51, 5993-5996, 1991.
The cells were used while in exponential growth. Stock solutions of either 0.5 or 1 mM of PcIV, PcXII, PcX, PcXVIII were prepared in dimethylformamide unless otherwise indicated and added to the 10 mL medium at a rate of 1 μL per mL. After allowing 18 hours for uptake of the phthalocyanine into the cells, the flasks containing the cultures were placed on a glass exposure tray above a 500-W tungsten-halogen lamp. The exposure tray was fitted with a 600-nm high-pass filter. Flasks were exposed to various fluences of red light (up to 30 kJ/m^2) at a fluence rate of approximately 74 W/m^2). After irradiation, the cells were collected by centrifugation.
For measurement of clonogenic cell survival, aliquots were plated in medium containing soft agar as described in Ramakrishnan N., Oleinick, N. L. Clay, M. E., Homg, M. F., Antunez, A. R., and Evans H. H., Photochem. Photobiol. 50, 373-378, 1989. The aliquots were plated in sufficient numbers to produce 50-200 colonies. The dishes were kept in an incubator at 37° C. in an atmosphere of 5% CO2 and 95% air for 10-14 days to allow viable cells to form colonies. Colonies were counted by eye. Controls treated with the phthalocyanine alone had plating efficiencies of about […]. The plating efficiencies of the treated cells are normalized to the plating efficiencies of control cells in each experiment. For measurement of the induction of apoptosis, DNA was isolated from the treated and control cells 2 hours after photodynamic therapy, subjected to electrophoresis on 1.5% agarose, stained with ethidium bromide, and visualized by UV transillumination, as described in Agarwal et al. The results are shown in Tables 4, 5 and 6 and in FIG. 3.

[5] = 1 mg/kg in corn oil, 135 J/cm^2, light 24 h after dosing
[6] = 1 mg/kg in corn oil, 135 J/cm^2
[7] = 5 mg/kg in phosphate buffered saline, 135 J/cm^2

Compound: C[Si](C)(CCCCNS(C)(=O)=O)O[Si]1(O[Si](C)(C)CCCCNS(C)(=O)=O)n2c3c4ccccc4c2N=C2N=C(N=c4c5ccccc5c(n41)=NC1=NC(=N3)c3ccccc31)c1ccccc12 [Compound VIII, SiPc[OSi(CH3)2(CH2)4NHSO2CH3]2]
- Maximum Effect (% survival at kj/m^2) ([1]; 1 μM, at 30 kj/m^2): 94% at 30
- Uptake Into V79 Cells, 1 μM ([2]; 18 hours): 0.1 ± 0.04 n Moles/10^6 cells
- Uptake Into V79 Cells, 4 μM ([2]; 18 hours): 0.8 ± 0.01 n Moles/10^6 cells
- n Moles/10^6 Cells/μM (composite uptake value) [2]: 0.2 n Moles/10^6 Cells/μM
- induction of apoptosis (L5178Y cells; 1 μM at a fluence of 30 kJ/m^2): did not induce apoptosis
- Tumor Responses at 24 hours [3, 5]: slight
- Doubling Time of Initial Tumor Volume after PDT [3, 6]: 4 days

Compound: CN1CCN(CCC[Si](C)(C)O[Si]2(O)n3c4c5ccccc5c3N=C3N=C(N=c5c6ccccc6c(n52)=NC2=NC(=N4)c4ccccc42)c2ccccc23)CC1 (stereo not drawn) [Compound XXVIII, HOSiPcOSi(CH3)2(CH2)3NC4H8NCH3]
- LD 90 (light dosage that kills 90% of cells) [1]: 1.8 kj/m^2
- Uptake Into V79 Cells, 1 μM ([2]; 18 hours): 1.2 ± 0.2 n Moles/10^6 cells
- Uptake Into V79 Cells, 2 μM ([2]; 2 μM, 18 hours): 3.6 ± 1.0 n Moles/10^6 cells
- Uptake Into V79 Cells, 4 μM ([2]; 18 hours): 11.4 ± 0.05 n Moles/10^6 cells
- n Moles/10^6 Cells/μM (composite uptake value) [2]: 1.2* n Moles/10^6 Cells/μM
- Fluence, Minimum Demonstrated Condition to Induce Apoptosis (L5178Y cells; 0.3 μM): 3.0 kJ/m^2
- C × F Ld90, Minimum Demonstrated Condition to Induce Apoptosis (L5178Y cells; 0.3 μM): 0.9 kJ/m^2
- Tumor Responses at 24 hours [3, 5]: complete
- Doubling Time of Initial Tumor Volume after PDT [3, 6]: 24 days

Compound: chloroaluminum phthalocyanine tetrasulfonate [AlPcTS, reference compound]
- Tumor Responses at 24 hours [3, 7]: substantial
- Doubling Time of Initial Tumor Volume after PDT [3, 7]: 7 days

Compound: CCN(CCC[Si](C)(C)O[Si]1(O)n2c3c4ccccc4c2N=C2N=C(N=c4c5ccccc5c(n41)=NC1=NC(=N3)c3ccccc31)c1ccccc12)CCN(C)C (stereo not drawn) [Compound X, HOSiPcOSi(CH3)2(CH2)3N(CH2CH3)(CH2)2N(CH3)2]
- LD 90 (light dosage that kills 90% of cells) [1]: 7 kj/m^2
- Uptake Into V79 Cells, 1 μM ([2]; 18 hours): 0.6 ± 0.2 n Moles/10^6 cells
- Uptake Into V79 Cells, 4 μM ([2]; 18 hours): 3.3 ± 1.4 n Moles/10^6 cells
- n Moles/10^6 Cells/μM (composite uptake value) [2]: 0.7 n Moles/10^6 Cells/μM
- Fluence, Minimum Demonstrated Condition to Induce Apoptosis (L5178Y cells; 0.5 μM): 6.0 kJ/m^2
- C × F Ld90, Minimum Demonstrated Condition to Induce Apoptosis (L5178Y cells; 0.5 μM): 3.0 kJ/m^2
- Fluence, Minimum Demonstrated Condition to Induce Apoptosis (L5178Y cells; 1.0 μM): 3.0 kJ/m^2
- C × F Ld90, Minimum Demonstrated Condition to Induce Apoptosis (L5178Y cells; 1.0 μM): 3.0 kJ/m^2
- Ld50 (fluence that reduces cell survival to 50%) [4]: 2.38 kJ/m^2
- Ld90 (fluence that reduces cell survival to 10%) [4]: 4.19 kJ/m^2
- activity relative to PcXII ([4]; from LD50/LD90 fluences): 44%
- normalized plating efficiency, AVG. ([4]; light dose 0 kJ/m^2): 100
- normalized plating efficiency, AVG. ([4]; light dose 2 kJ/m^2): 71.8
- normalized plating efficiency, AVG. ([4]; light dose 3 kJ/m^2): 30.1
- normalized plating efficiency, AVG. ([4]; light dose 4 kJ/m^2): 20.5
- normalized plating efficiency, AVG. ([4]; light dose 5 kJ/m^2): 0.43
- normalized plating efficiency, AVG. ([4]; light dose 6 kJ/m^2): 0.031
- normalized plating efficiency, AVG. ([4]; light dose 8 kJ/m^2): 0.00058
